The results in this text go back to ChEMBL document CHEMBL6120990, “A Putative Frizzled 7-Targeting Compound Acts as a Firefly Luciferase Inhibitor” (J Med Chem, 2024).

The test system of assay [1] is HEK293. Kind of assay: Inhibition of firefly luciferase expression in deltaFZD1-10 HEK293 cells assessed as reduction in bioluminescence incubated for 24 hrs by microplate reader analysis. To be noted: Homo sapiens, dose 0.1-1000 nM. Format: functional, cell-based.
Assay [2] relates to HEK293. In words: Inhibition of Wnt/beta-catenin signalling in deltaFZD1-10 HEK293 cells transfected with HiBit-FZD7 assessed as reduction in Wnt3a induced topflash signal at 10 uM pre-stimulated with Wnt3a followed by compound addition and measured after 24 hrs by dual luciferase reporter assay. Format: cell-based. To be noted: Homo sapiens.
The test system of assay [3] is HEK293. Kind of assay: Inhibition of Wnt/beta-catenin signalling in deltaFZD1-10 HEK293 cells transfected with FZD7-DEP-Clamp assessed as effect on WNT-3A induced FZD7-DEP-Clamp signal using furimazine as substrate at 10 uM preincubated for 10 mins followed by WNT-3A stimulation and measured every 2 mins for 1 hr by luminescence based analysis. Format: cell-based. As to conditions: Homo sapiens, time 70.0 min.

In assay [4] the test system is HEK293. In words: Effect on Nano-luciferase activity in deltaFZD1-10 HEK293 cells at 0.1 to 1000 nM incubated for 24 hrs under TK promoter by luminescence based analysis. As to conditions: Homo sapiens, dose 0.1-1000 nM. Format: functional, cell-based.
For assay [5], the system named is HEK293. In words: Inhibition of Wnt/beta-catenin signalling in deltaFZD1-10 HEK293 cells transfected with HiBit-FZD7 assessed as reduction in topflash signal at 10 uM incubated for 24 hrs by dual luciferase reporter assay. It counts as cell-based. As to conditions: Homo sapiens.
Assay [6] in a line: Inhibition of firefly luciferase expression in deltaFZD1-10 HEK293 cells incubated for 24 hrs by microplate reader analysis. It counts as functional, cell-based. To be noted: Homo sapiens, HEK293, 24 h.
In assay [7] the test system is MEF. Kind of assay: Effect on WNT-3A induced Axin2 mRNA expression in mouse MEF cells at 10 uM stimulated with WNT-3A prior to compound addition and measured after 24 hrs by qPCR analysis. Format: functional, cell-based.
Assay [8] can be described thus: Inhibition of Wnt/beta-catenin signalling in deltaFZD1-10 HEK293 cells transfected with HiBit-FZD7 assessed as inhibition of CHIR99021-induced TOPFlash ratio incubated for 24 hrs by dual luciferase reporter assay. Format: cell-based. As to conditions: Homo sapiens, HEK293, 24 h.
Assay [9] relates to HEK293. In words: Effect on renilla luciferase level deltaFZD1-10 HEK293 cells assessed as reduction in Rluc-bioluminescence at 0.1 to 1000 nM incubated for 24 hrs by luminescence based analysis. Format: functional, cell-based. To be noted: Homo sapiens, dose 0.1-1000 nM.

Active and inactive are the calls of the source. The rule behind the calls is not given here.

In the case of `Cc1ccc(C(=O)Nc2ccc(SCC(=O)Nc3nc(-c4ccccc4)cs3)cc2)c(C)c1`, the inhibition entry in [1] was “Dose-dependent-effect”. Moreover, the inhibition entry in assay [2] and in [5] was “Active” throughout. Also, in [3], the inhibition result is “inactive”. Further, the result in assay [4], in [7] and in assay [9] was inactive. The IC50 in [6] was 23.7 nM; in [8] (read-out: IC50), 33 nM; in [8] (read-out: pIC50 (converted)), 33.9 nM.
